The NIST ThermoML archive (doi:10.1021/acs.jced.6b00361)
Numbers after ± are expanded uncertainties.

Experiments:
[1] = Molar enthalpy of transition or fusion; conditions: Crystal; DSC
[2] = Crystal; DTA

Molar enthalpy of transition or fusion [1]: 34.3 ± 1 kJ/mol
Normal melting temperature [2]: 221.2 ± 0.5 °C
SMILES: O=C(O)C=Cc1ccc(O)cc1 [3-(4-hydroxyphenyl)-2-propenoic acid]
